Measured values published in patent US11702422B2, “Imidazopyridazines as modulators of IL-17” (Janssen Pharmaceutica NV, priority 2020, dated 2023).

Tests used:
[1] = molecular target: IL-17A(FLAG-Tagged): IL-17RA(His-Tagged) (Homo sapiens, UniProt Q16552, K93Q); test: IL-17A(FLAG-Tagged): IL-17RA(His-Tagged) Binding Disruption Eu-HTRF Assay; settings: IL-17A/IL-17RA binding disruption, simple average if tested more than once
Summary of the method: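 IC50 comes from a one-site competition fit of the HTRF 665/620 nm ratio. Compound dilutions (2-fold, 22 points) were held 1 h rt with FLAG-tagged IL-17A dimer, then His-tagged IL-17RA plus Eu-cryptate anti-FLAG and D2 anti-His antibodies were added for 2 h rt.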

[2] = tested on: IL-17A-induced G-CSF production in human normal keratinocyte (NHK); test: NHK Assay: IL-17A-induced G-CSF production in human normal keratinocytes; type: cell-based; settings: 24 h, adult normal human keratinocytes, IL-17A 5 ng/mL, simple average if tested more than once
Summary of the method: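 Inhibition of IL-17A-driven G-CSF release is measured in adult keratinocytes stimulated for 24 h at 37° C with 5 ng/mL human IL-17A that had been pre-incubated with compound for 1 h. IC50 comes from HTRF G-CSF levels; cell viability is checked in parallel by luminescent ATP assay.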

UniProt Q16552, sequence (Q16552 with tags, fused parts or gaps K93Q): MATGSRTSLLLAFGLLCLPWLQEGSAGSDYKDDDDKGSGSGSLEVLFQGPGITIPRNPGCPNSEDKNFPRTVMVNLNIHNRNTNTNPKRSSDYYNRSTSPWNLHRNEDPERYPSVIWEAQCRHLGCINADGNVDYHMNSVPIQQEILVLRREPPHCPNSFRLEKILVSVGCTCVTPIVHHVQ

Row | SMILES | IC50 [1] | IC50 ([2]; Homo sapiens, Keratinocyte) | IC50 [2]
1 | O=C(CCC(F)(F)F)N[C@@H](c1cnn2cc([C@@H](NC(=O)c3ccnc(CC(F)(F)F)c3)C3CCC(F)(F)CC3)nc2c1)C1CC1 [Example 74, N—((S)-(7-((R)-Cyclopropyl(4,4,4-trifluorobutanamido)methyl)imidazo[1,2-b]pyridazin-2-yl)(4,4-difluorocyclohexyl)methyl)-2-(2,2,2-trifluoroethyl)isonicotinamide] | 120 nM | 58 nM | 
2 | Cc1cc(C(=O)N[C@H](c2cn3ncc([C@H](NC(=O)CCC(F)(F)F)C4CC4)cc3n2)C2CCC(F)(F)CC2)n(C(C)C)n1 [Example 78, N—((S)-(7-((R)-Cyclopropyl(4,4,4-trifluorobutanamido)methyl)imidazo[1,2-b]pyridazin-2-yl)(4,4-difluorocyclohexyl)methyl)-1-isopropyl-3-methyl-1H-pyrazole-5-carboxamide] | 260 nM | 330 nM | 
3 | Cc1noc(C)c1C(=O)N[C@H](c1cn2ncc([C@H](NC(=O)CCC(F)(F)F)C3CC3)cc2n1)C1CCC(F)(F)CC1 [Example 80, N—((S)-(7-((R)-Cyclopropyl(4,4,4-trifluorobutanamido)methyl)imidazo[1,2-b]pyridazin-2-yl)(4,4-difluorocyclohexyl)methyl)-3,5-dimethylisoxazole-4-carboxamide] | 17000 nM | > 20000 nM | 
4 | Cc1noc(C(C)C)c1C(=O)N[C@H](c1cn2ncc([C@H](NC(=O)CCC(F)(F)F)C3CC3)cc2n1)C1CCC(F)(F)CC1 [Example 81, N—((S)-(7-((R)-Cyclopropyl(4,4,4-trifluorobutanamido)methyl)imidazo[1,2-b]pyridazin-2-yl)(4,4-difluorocyclohexyl)methyl)-5-isopropyl-3-methylisoxazole-4-carboxamide] | 5600 nM | > 20000 nM | 
5 | CCc1noc(C)c1C(=O)N[C@H](c1cn2ncc([C@H](NC(=O)CCC(F)(F)F)C3CC3)cc2n1)C1CCC(F)(F)CC1 [Example 82, N—((S)-(7-((R)-Cyclopropyl(4,4,4-trifluorobutanamido)methyl)imidazo[1,2-b]pyridazin-2-yl)(4,4-difluorocyclohexyl)methyl)-3-ethyl-5-methylisoxazole-4-carboxamide] | 3000 nM | > 20000 nM | 
6 | CC(C)n1cncc1C(=O)N[C@H](c1cn2ncc([C@H](NC(=O)CCC(F)(F)F)C3CC3)cc2n1)C1CCC(F)(F)CC1 [Example 85, N—((S)-(7-((R)-Cyclopropyl(4,4,4-trifluorobutanamido)methyl)imidazo[1,2-b]pyridazin-2-yl)(4,4-difluorocyclohexyl)methyl)-1-isopropyl-1H-imidazole-5-carboxamide] | 250 nM | 340 nM | 
7 | CC(C)c1ocnc1C(=O)N[C@H](c1cn2ncc([C@H](NC(=O)CCC(F)(F)F)C3CC3)cc2n1)C1CCC(F)(F)CC1 [Example 86, N—((S)-(7-((R)-Cyclopropyl(4,4,4-trifluorobutanamido)methyl)imidazo[1,2-b]pyridazin-2-yl)(4,4-difluorocyclohexyl)methyl)-5-isopropyloxazole-4-carboxamide] | 210 nM | 350 nM | 
8 | O=C(CCC(F)(F)F)N[C@@H](c1cnn2cc([C@@H](NC(=O)[C@@H]3C[C@H]3F)C3CCC(F)(F)CC3)nc2c1)C1CC1 [Example 90, (1S,2R)—N—((S)-(7-((R)-Cyclopropyl(4,4,4-trifluorobutanamido)methyl)imidazo[1,2-b]pyridazin-2-yl)(4,4-difluorocyclohexyl)methyl)-2-fluorocyclopropane-1-carboxamide] | 1500 nM | ~20000 nM | 
9 | O=C(CCC(F)(F)F)N[C@@H](c1cnn2cc([C@@H](NC(=O)c3cnnn3CC3CC3(F)F)C3CCC(F)(F)CC3)nc2c1)C1CC1 (stereo partly drawn) [Example 92, N—((S)-(7-((R)-Cyclopropyl(4,4,4-trifluorobutanamido)methyl)imidazo[1,2-b]pyridazin-2-yl)(4,4-difluorocyclohexyl)methyl)-1-((2,2-difluorocyclopropyl)methyl)-1H-1,2,3-triazole-5-carboxamide] | 110 nM | 140 nM | 
10 | O=C(CCC(F)(F)F)N[C@@H](c1cnn2cc([C@@H](NC(=O)c3cnn(CC4CC4(F)F)n3)C3CCC(F)(F)CC3)nc2c1)C1CC1 (stereo partly drawn) [Example 93, N—((S)-(7-((R)-Cyclopropyl(4,4,4-trifluorobutanamido)methyl)imidazo[1,2-b]pyridazin-2-yl)(4,4-difluorocyclohexyl)methyl)-2-((2,2-difluorocyclopropyl)methyl)-2H-1,2,3-triazole-4-carboxamide] | 150 nM | 280 nM | 

Compounds with a lower IC50 [1], results first:

Row | IC50 [1] | SMILES | IC50 ([2]; Homo sapiens, Keratinocyte) | IC50 [2]
11 | 49 nM | O=C(CCC(F)(F)F)N[C@@H](c1cnn2cc([C@@H](NC(=O)c3ncnn3CCOC(F)(F)F)C3CCC(F)(F)CC3)nc2c1)C1CC1 [Example 70, N—((S)-(7-((R)-Cyclopropyl(4,4,4-trifluorobutanamido)methyl)imidazo[1,2-b]pyridazin-2-yl)(4,4-difluorocyclohexyl)methyl)-1-(2-(trifluoromethoxy)ethyl)-1H-1,2,4-triazole-5-carboxamide] | 110 nM | 
12 | 50 nM | O=C(CCC(F)(F)F)N[C@@H](c1cnn2cc([C@@H](NC(=O)c3conc3C3CC3)C3CCC(F)(F)CC3)nc2c1)C1CC1 [Example 75, 3-Cyclopropyl-N—((S)-(7-((R)-cyclopropyl(4,4,4-trifluorobutanamido)methyl)imidazo[1,2-b]pyridazin-2-yl)(4,4-difluorocyclohexyl)methyl)isoxazole-4-carboxamide] | 92 nM | 
13 | 67 nM | CC(C)c1nocc1C(=O)N[C@H](c1cn2ncc([C@H](NC(=O)CCC(F)(F)F)C3CC3)cc2n1)C1CCC(F)(F)CC1 [Example 76, N—((S)-(7-((R)-Cyclopropyl(4,4,4-trifluorobutanamido)methyl)imidazo[1,2-b]pyridazin-2-yl)(4,4-difluorocyclohexyl)methyl)-3-isopropylisoxazole-4-carboxamide] | 67 nM | 
14 | 50 nM | O=C(CCC(F)(F)F)N[C@@H](c1cnn2cc([C@@H](NC(=O)c3conc3CCC(F)(F)F)C3CCC(F)(F)CC3)nc2c1)C1CC1 [Example 77, N—((S)-(7-((R)-Cyclopropyl(4,4,4-trifluorobutanamido)methyl)imidazo[1,2-b]pyridazin-2-yl)(4,4-difluorocyclohexyl)methyl)-3-(3,3,3-trifluoropropyl)isoxazole-4-carboxamide] | 60 nM | 
15 | 84 nM | Cc1nocc1C(=O)N[C@H](c1cn2ncc([C@H](NC(=O)CCC(F)(F)F)C3CC3)cc2n1)C1CCC(F)(F)CC1 [Example 79, N—((S)-(7-((R)-Cyclopropyl(4,4,4-trifluorobutanamido)methyl)imidazo[1,2-b]pyridazin-2-yl)(4,4-difluorocyclohexyl)methyl)-3-methylisoxazole-4-carboxamide] | 150 nM | 
16 | 33 nM | CCc1nocc1C(=O)N[C@H](c1cn2ncc([C@H](NC(=O)CCC(F)(F)F)C3CC3)cc2n1)C1CCC(F)(F)CC1 [Example 83, N—((S)-(7-((R)-Cyclopropyl(4,4,4-trifluorobutanamido)methyl)imidazo[1,2-b]pyridazin-2-yl)(4,4-difluorocyclohexyl)methyl)-3-ethylisoxazole-4-carboxamide] | 60 nM | 
17 | 80 nM | O=C(CCC(F)(F)F)N[C@@H](c1cnn2cc([C@@H](NC(=O)c3cnoc3C3CC3)C3CCC(F)(F)CC3)nc2c1)C1CC1 [Example 84, 5-Cyclopropyl-N—((S)-(7-((R)-cyclopropyl(4,4,4-trifluorobutanamido)methyl)imidazo[1,2-b]pyridazin-2-yl)(4,4-difluorocyclohexyl)methyl)isoxazole-4-carboxamide] | 160 nM | 
18 | 33 nM | CC(C)c1snnc1C(=O)N[C@H](c1cn2ncc([C@H](NC(=O)CCC(F)(F)F)C3CC3)cc2n1)C1CCC(F)(F)CC1 [Example 87, N—((S)-(7-((R)-Cyclopropyl(4,4,4-trifluorobutanamido)methyl)imidazo[1,2-b]pyridazin-2-yl)(4,4-difluorocyclohexyl)methyl)-5-isopropyl-1,2,3-thiadiazole-4-carboxamide] | 95 nM | 
19 | 56 nM | CCc1oncc1C(=O)N[C@H](c1cn2ncc([C@H](NC(=O)CCC(F)(F)F)C3CC3)cc2n1)C1CCC(F)(F)CC1 [Example 88, N—((S)-(7-((R)-Cyclopropyl(4,4,4-trifluorobutanamido)methyl)imidazo[1,2-b]pyridazin-2-yl)(4,4-difluorocyclohexyl)methyl)-5-ethylisoxazole-4-carboxamide] | 110 nM | 
20 | 43 nM | CC(C)c1oncc1C(=O)N[C@H](c1cn2ncc([C@H](NC(=O)CCC(F)(F)F)C3CC3)cc2n1)C1CCC(F)(F)CC1 [Example 89, N—((S)-(7-((R)-Cyclopropyl(4,4,4-trifluorobutanamido)methyl)imidazo[1,2-b]pyridazin-2-yl)(4,4-difluorocyclohexyl)methyl)-5-isopropylisoxazole-4-carboxamide] |  | 65 nM
21 | 92 nM | O=C(CCC(F)(F)F)N[C@@H](c1cnn2cc([C@@H](NC(=O)c3cnnn3CC3CCC3(F)F)C3CCC(F)(F)CC3)nc2c1)C1CC1 (stereo partly drawn) [Example 91, N—((S)-(7-((R)-Cyclopropyl(4,4,4-trifluorobutanamido)methyl)imidazo[1,2-b]pyridazin-2-yl)(4,4-difluorocyclohexyl)methyl)-1-((2,2-difluorocyclobutyl)methyl)-1H-1,2,3-triazole-5-carboxamide] | 120 nM | 
